From patent publication US4175081A, “5-Substituted thiadiazole ureas” (priority 1977, dated 1979)

Legend:
Crabgrass (CG) [1] = assay: Post-emergence herbicide test; type: in vivo, Digitaria sanquinalis; settings: Digitaria sanguinalis, post-emergence, 336 h, two weeks after treatment
How it was run: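 Crabgrass (Digitaria sanquinalis) was surface seeded individually in 3' plastic pots of potting soil, covered with screened soil, and watered by sub-irrigation in greenhouse trays. Planting was staggered so seedlings reached the target stage together. Post-emergence sprays were applied in a hood with a removable belt and fixed nozzle, and control was visually rated two weeks after treatment.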

Barnyard grass (BG) [2] = assay: Pre-emergence herbicide test; type: in vivo; settings: Echinochloa crus-galli, 336 h, two weeks after treatment
How it was run: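 Barnyard grass surface-seeded in potting soil and sprayed pre-emergence one day after seeding, at 8 or 4 lb compound/acre in 38 gal/acre spray volume. Pots kept in greenhouse with sub-irrigation only; injury or control rated visually two weeks after treatment.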

Amaranth pigweed (PW) [3] = assay: Pre-emergence herbicide test; type: in vivo, Amaranthus retroflexus; settings: 336 h, two weeks after treatment
How it was run: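 Pigweed was surface-seeded in potted soil one day before spraying at 8 lbs compound per acre, or 4 lbs/acre, in 38 gallons per acre. Pots were kept in the greenhouse with sub-irrigation only; injury or control was rated visually two weeks after treatment.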

[4] = system: Yellow foxtail grass (YF); assay: Pre-emergence herbicide test; type: in vivo, Setaria glauca; settings: Setaria, 336 h, two weeks after treatment
How it was run: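 Seeds surface-sown in potting soil one day before spraying; compounds applied pre-emergence at 8 or 4 lbs/acre in 38 gallons/acre spray. Pots held in greenhouse with sub-irrigation only. Injury or control rated visually two weeks after treatment.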

Cotton (CT) [5] = assay: Pre-emergence herbicide test; type: in vivo, Gossypium hirsutum var. DPL smooth leaf; settings: Gossypium hirsutum, 336 h, two weeks after treatment
How it was run: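 Crop and weed species seeded one day before treatment, then sprayed pre-emergence at 8 lbs actual compound per acre (also 4 lbs/acre formulations) in 38 gallons per acre. Pots kept in greenhouse with sub-irrigation only; injury or control visually rated two weeks after treatment.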

Turnip (TP) [6] = assay: Post-emergence herbicide test; type: in vivo, Brassica sp.; settings: Brassica rapa, post-emergence, 336 h, two weeks after treatment
How it was run: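 A greenhouse post-emergence herbicide test on turnip. Seeds were sown on the surface of potting soil in 3' plastic pots, lightly covered with screened soil and watered from below. Planting was timed so seedlings had 1 or 2 true leaves above the cotyledons at spraying, done in a hood with a fixed nozzle. Control or injury was scored by eye after two weeks.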

[7] = system: variety of crops and weed species; assay: Pre- and post-emergence herbicide tests, overall assessment of Tables III-VI; type: in vivo; settings: data of Tables III-VI
How it was run: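 Crops and weeds grown in potting soil were sprayed at 8 lbs. compound per acre in 38 gallons per acre, pre-emergence pots seeded one day before treatment. Injury or control was visually rated two weeks after treatment.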

Crabgrass (CG) [8] = assay: Pre-emergence herbicide test; type: in vivo, Digitaria sanquinalis; settings: Digitaria sanguinalis, pre-emergence, 336 h, two weeks after treatment
How it was run: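 Crabgrass (Digitaria sanquinalis) was surface seeded in 3' plastic pots of potting soil, covered with screened soil, and watered by sub-irrigation in greenhouse trays. Pots were seeded one day before spraying in a hood with a moving belt and fixed nozzle. Plants stayed in the greenhouse on sub-irrigation, and pre-emergence control was rated visually two weeks after treatment.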

[9] = system: Yellow foxtail grass (YF); assay: Post-emergence herbicide test; type: in vivo, Setaria glauca; settings: Setaria, 336 h, two weeks after treatment
How it was run: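 Potted seedlings grown in greenhouse, planting staggered to reach the target stage together, then sprayed post-emergence at 8 lbs actual compound/acre in 38 gallons/acre (4 lbs/acre formulations also prepared). Sub-irrigated afterwards. Injury or control rated visually two weeks after treatment.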

Cotton (CT) [10] = assay: Post-emergence herbicide test; type: in vivo, Gossypium hirsutum var. DPL smooth leaf; settings: Gossypium hirsutum, post-emergence, 336 h, two weeks after treatment
How it was run: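 Cotton (Gossypium hirsutum var. DPL smooth leaf) was grown in 3' plastic pots of potting soil, four seeds per pot, planted at a depth equal to the seed diameter and watered by sub-irrigation. At the stage of expanded cotyledons with the first true leaf 1' long, plants were sprayed post-emergence in a hood with a fixed nozzle over a moving belt. Percent control was rated visually two weeks later.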

Barnyard grass (BG) [11] = assay: Post-emergence herbicide test; type: in vivo; settings: Echinochloa crus-galli, 336 h, two weeks after treatment
How it was run: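 Greenhouse pot-grown barnyard grass seedlings sprayed post-emergence at 8 lbs active compound per acre (some at 4 lbs/acre) in 38 gallons per acre, then sub-irrigated. Injury or control rated visually two weeks after treatment.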

Turnip (TP) [12] = assay: Pre-emergence herbicide test; type: in vivo, Brassica sp.; settings: Brassica rapa, pre-emergence, 336 h, two weeks after treatment
How it was run: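 Turnip (Brassica sp.) seeds were surface sown in 3' plastic pots of potting soil, covered with a thin layer of screened soil, and sub-irrigated in greenhouse trays. Pots were seeded one day ahead of treatment, sprayed pre-emergence under a hood with a fixed nozzle and moving belt, then kept in the greenhouse.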

Amaranth pigweed (PW) [13] = assay: Post-emergence herbicide test; type: in vivo, Amaranthus retroflexus; settings: 336 h, two weeks after treatment
How it was run: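 Pot-grown pigweed was sprayed post-emergence at the 1–2 true-leaf stage with compound at rates equivalent to 8 lbs per acre (formulations also prepared for 4 lbs/acre) in 38 gallons per acre, using a hood with fixed nozzle. Plants were sub-irrigated in the greenhouse, and injury or control was rated visually two weeks after treatment.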

Johnson grass (JG) [14] = assay: Pre-emergence herbicide test; type: in vivo, Sorgum helepense; settings: Sorghum halepense, 336 h, two weeks after treatment
How it was run: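 Pots seeded one day before spraying; compound applied pre-emergence at 8 lbs/acre (or 4 lbs/acre) in 38 gallons/acre spray volume. Sub-irrigated in greenhouse; injury/control rated visually two weeks after treatment.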

Johnson grass (JG) [15] = assay: Post-emergence herbicide test; type: in vivo, Sorgum helepense; settings: Sorghum halepense, 336 h, two weeks after treatment
How it was run: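 Greenhouse pot-grown seedlings sprayed post-emergence at 8 lbs compound per acre (some at 4 lbs/acre) in 38 gallons per acre spray volume. Sub-irrigated thereafter. Injury/control rated visually two weeks after treatment.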

Bean (BN) [16] = assay: Post-emergence herbicide test; type: in vivo, Phaseolus vulgaris var. Black Valentine; settings: Phaseolus vulgaris, post-emergence, 336 h, two weeks after treatment
How it was run: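 Snapbean (Phaseolus vulgaris var. Black Valentine) was tested post-emergence. Four seeds were sown in 3' plastic pots of potting soil at a depth equal to the seed diameter, then sub-irrigated in greenhouse trays. Planting dates were staggered so plants were sprayed once primary leaves had expanded, with the growing point at the primary leaf nodes.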

Bean (BN) [17] = assay: Pre-emergence herbicide test; type: in vivo, Phaseolus vulgaris var. Black Valentine; settings: Phaseolus vulgaris, 336 h, two weeks after treatment
How it was run: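 Black Valentine bean was seeded in potting soil one day before spraying. Compound was applied pre-emergence at 8 lbs/acre (also 4 lbs/acre) in 38 gallons per acre. Plants were sub-irrigated and injury or control was rated visually after two weeks.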

Corn (CN) [18] = assay: Post-emergence herbicide test; type: in vivo; settings: Zea mays, 336 h, two weeks after treatment
How it was run: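 Greenhouse seedlings grown in potting soil and sprayed post-emergence at 8 lbs compound/acre (formulations also made for 4 lbs/acre) in 38 gallons/acre spray volume. Watering by sub-irrigation only. Injury or control rated visually two weeks after treatment.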

Corn (CN) [19] = assay: Pre-emergence herbicide test; type: in vivo; settings: Zea mays, 336 h, two weeks after treatment
How it was run: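 Four corn seeds per pot, sown at seed-diameter depth one day before spraying, got soil surface treatment at 8 lbs/acre (4 lbs/acre formulations also prepared) in 38 gallons/acre. Pots were greenhouse-held with sub-irrigation only. Injury or control was scored visually two weeks after treatment.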

`CNC(=O)N(C)c1nnc(C(F)(F)F)s1` [Example 36] was tested, and the pest or weed control (Crabgrass (CG) [1]; 2 lb/acre) was 70%, the pest or weed control at 4483.4 g/ha (Crabgrass (CG) [1]; 4 lb/acre) was 90% and the pest or weed control at 8966.8 g/ha (Crabgrass (CG) [1]; 8 lb/acre) was 100%. The pest or weed control at 2241.7 g/ha (Barnyard grass (BG) [2]; 2 lb/acre) was 80%, the pest or weed control at 4483.4 g/ha (Barnyard grass (BG) [2]; 4 lb/acre) was 100% and the pest or weed control at 8966.8 g/ha (Barnyard grass (BG) [2]; 8 lb/acre) was 90%. It also gave a pest or weed control at 2241.7 g/ha (Amaranth pigweed (PW) [3]; 2 lb/acre) of 90%, a pest or weed control at 4483.4 g/ha (Amaranth pigweed (PW) [3]; 4 lb/acre) of 100% and a pest or weed control at 8966.8 g/ha (Amaranth pigweed (PW) [3]; 8 lb/acre) of 90%. For the same molecule, the pest or weed control at 2241.7 g/ha ([4]; 2 lb/acre) was 100%, the pest or weed control at 4483.4 g/ha ([4]; 4 lb/acre) was 90% and the pest or weed control at 8966.8 g/ha ([4]; 8 lb/acre) was 90%. For the same molecule, the pest or weed control at 2241.7 g/ha (Cotton (CT) [5]; 2 lb/acre) was 80%, the pest or weed control at 4483.4 g/ha (Cotton (CT) [5]; 4 lb/acre) was 90% and the pest or weed control at 8966.8 g/ha (Cotton (CT) [5]; 8 lb/acre) was 90%. The pest or weed control at 2241.7 g/ha (Turnip (TP) [6]; 2 lb/acre) was 100%, the pest or weed control at 4483.4 g/ha (Turnip (TP) [6]; 4 lb/acre) was 100% and the pest or weed control at 8966.8 g/ha (Turnip (TP) [6]; 8 lb/acre) was 100%. The “herbicidal effectiveness / selectivity, in words” value [7] was “extremely effective when applied to a variety of crops and weed species”, the pest or weed control (Crabgrass (CG) [8]; 2 lb/acre) was 100% and the pest or weed control at 4483.4 g/ha (Crabgrass (CG) [8]; 4 lb/acre) was 90%. It also gave a pest or weed control at 8966.8 g/ha (Crabgrass (CG) [8]; 8 lb/acre) of 90%, a pest or weed control ([9]; 2 lb/acre) of 100% and a pest or weed control at 4483.4 g/ha ([9]; 4 lb/acre) of 100%. The pest or weed control at 8966.8 g/ha ([9]; 8 lb/acre) was 100%, the pest or weed control at 2241.7 g/ha (Cotton (CT) [10]; 2 lb/acre) was 100% and the pest or weed control at 4483.4 g/ha (Cotton (CT) [10]; 4 lb/acre) was 100%. For the same molecule, the pest or weed control at 8966.8 g/ha (Cotton (CT) [10]; 8 lb/acre) was 100%, the pest or weed control at 2241.7 g/ha (Barnyard grass (BG) [11]; 2 lb/acre) was 100% and the pest or weed control at 4483.4 g/ha (Barnyard grass (BG) [11]; 4 lb/acre) was 100%. It also gave a pest or weed control at 8966.8 g/ha (Barnyard grass (BG) [11]; 8 lb/acre) of 100%, a pest or weed control at 2241.7 g/ha (Turnip (TP) [12]; 2 lb/acre) of 100% and a pest or weed control at 4483.4 g/ha (Turnip (TP) [12]; 4 lb/acre) of 100%. For the same molecule, the pest or weed control at 8966.8 g/ha (Turnip (TP) [12]; 8 lb/acre) was 100%, the pest or weed control at 2241.7 g/ha (Amaranth pigweed (PW) [13]; 2 lb/acre) was 100% and the pest or weed control at 4483.4 g/ha (Amaranth pigweed (PW) [13]; 4 lb/acre) was 100%. For the same molecule, the pest or weed control at 8966.8 g/ha (Amaranth pigweed (PW) [13]; 8 lb/acre) was 100%, the pest or weed control at 2241.7 g/ha (Johnson grass (JG) [14]; 2 lb/acre) was 70% and the pest or weed control at 4483.4 g/ha (Johnson grass (JG) [14]; 4 lb/acre) was 40%. For the same molecule, the pest or weed control at 8966.8 g/ha (Johnson grass (JG) [14]; 8 lb/acre) was 90%, the pest or weed control (Johnson grass (JG) [15]; 2 lb/acre) was 80% and the pest or weed control at 4483.4 g/ha (Johnson grass (JG) [15]; 4 lb/acre) was 80%. For the same molecule, the pest or weed control at 8966.8 g/ha (Johnson grass (JG) [15]; 8 lb/acre) was 100%, the pest or weed control at 2241.7 g/ha (Bean (BN) [16]; 2 lb/acre) was 100% and the pest or weed control at 4483.4 g/ha (Bean (BN) [16]; 4 lb/acre) was 100%. It also gave a pest or weed control at 8966.8 g/ha (Bean (BN) [16]; 8 lb/acre) of 100%, a pest or weed control at 2241.7 g/ha (Bean (BN) [17]; 2 lb/acre) of 90% and a pest or weed control at 4483.4 g/ha (Bean (BN) [17]; 4 lb/acre) of 80%. The pest or weed control at 8966.8 g/ha (Bean (BN) [17]; 8 lb/acre) was 100%, the pest or weed control (Corn (CN) [18]; 2 lb/acre) was 70% and the pest or weed control at 4483.4 g/ha (Corn (CN) [18]; 4 lb/acre) was 100%. It also gave a pest or weed control at 8966.8 g/ha (Corn (CN) [18]; 8 lb/acre) of 100%, a pest or weed control at 2241.7 g/ha (Corn (CN) [19]; 2 lb/acre) of 30% and a pest or weed control at 4483.4 g/ha (Corn (CN) [19]; 4 lb/acre) of 40%. The pest or weed control at 8966.8 g/ha (Corn (CN) [19]; 8 lb/acre) was 30%.
